Test results: patent US11407736B2 (priority 2019, dated 2022)

Columns and labels:
[1] = molecular target: RIPK1 (Homo sapiens (Human), UniProt Q13546); experiment: RIPK1 ADP-Glo biochemical kinase assay; conditions: read-out: RIPK1 ADP-Glo Kinase (IC50)
Protocol: The final reaction volume was 5.0ul.
Adding 5 μl of ADP-Glo™ terminated the reaction.

[2] = tested on: U937 cells; experiment: U937 cell necroptosis assay (TNFa + zVAD, CellTiter-Glo); format: cell-based, human; conditions: Homo sapiens, U-937, U937 cells, TNFa + zVAD; read-out: U937 Zvad TNF CTG Recovery, U937, TNFa + zVAD (IC50)
Outline: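 Necroptosis was induced with TNFa at 2 ng/mL final for 18 h at 37 °C, following 1 h compound pre-incubation in the presence of zVAD-fmk (60 uM for U937 plating medium, 40 uM for L929 medium). Luminescent CellTiter-Glo signal gave relative cell survival.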

[3] = tested on: L929 cells; experiment: L929 cell necroptosis assay (TNFa + zVAD, CellTiter-Glo); format: cell-based, murine; conditions: Mus musculus, L929, L929 cells, TNFa + zVAD; read-out: L929-CTG-recovery, L929, TNFa + zVAD (IC50)
Outline: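 Necroptosis was read as CellTiter-Glo luminescence 18 hours after TNFa stimulation at 37° C, 5% CO2. Prior to that, L929 cells (10K/well, plated 18 h) received fresh medium with 40 uM zVAD-fmk plus 4-fold serially diluted compound.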

Sequence of RIPK1 (Q13546 whole entry, species assumed): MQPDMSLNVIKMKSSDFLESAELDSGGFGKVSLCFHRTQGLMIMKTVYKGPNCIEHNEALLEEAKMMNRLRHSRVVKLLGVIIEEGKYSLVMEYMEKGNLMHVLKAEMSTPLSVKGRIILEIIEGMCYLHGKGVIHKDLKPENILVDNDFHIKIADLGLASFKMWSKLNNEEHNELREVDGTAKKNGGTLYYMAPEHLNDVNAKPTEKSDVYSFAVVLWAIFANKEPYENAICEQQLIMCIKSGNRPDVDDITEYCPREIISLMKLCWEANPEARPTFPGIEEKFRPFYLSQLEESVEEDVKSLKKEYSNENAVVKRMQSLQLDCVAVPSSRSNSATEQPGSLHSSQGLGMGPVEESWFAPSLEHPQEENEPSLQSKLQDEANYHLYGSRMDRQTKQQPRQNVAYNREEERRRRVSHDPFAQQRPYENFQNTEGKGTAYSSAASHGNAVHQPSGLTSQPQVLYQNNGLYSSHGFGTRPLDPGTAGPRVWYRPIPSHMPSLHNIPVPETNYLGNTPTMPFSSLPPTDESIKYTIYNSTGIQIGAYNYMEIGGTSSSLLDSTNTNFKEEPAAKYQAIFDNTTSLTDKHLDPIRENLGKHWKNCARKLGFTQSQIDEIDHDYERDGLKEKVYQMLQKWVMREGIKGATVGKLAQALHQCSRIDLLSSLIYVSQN

Molecule `CN1C(=O)[C@@H](NC(=O)c2ncn(Cc3ccccc3)n2)COc2cc(CN3CCn4nc(C(F)(F)F)nc4C3)ccc21` [Compound I-67, (S)-1-benzyl-N-(5-methyl-4-oxo-8-((2-(trifluoromethyl)-5,6-dihydro-[1,2,4]triazolo[1,5-a]pyrazin-7(8H)-yl)methyl)-2,3,4,5-tetrahydrobenzo[b][1,4]oxazepin-3-yl)-1H-1,2,4-triazole-3-carboxamide] has an IC50 [1] of 41.5 nM, an IC50 [2] of 15.2 nM and an IC50 [3] of 8.5 nM.

`CN1C(=O)[C@H](NC(=O)c2n[nH]c(Cc3ccccc3)n2)COc2ccc(C#CC(C)(C)O)cc21` [Compound I-70, (R)-5-benzyl-N-(7-(3-hydroxy-3-methylbut-1-yn-1-yl)-5-methyl-4-oxo-2,3,4,5-tetrahydrobenzo[b][1,4]oxazepin-3-yl)-1H-1,2,4-triazole-3-carboxamide] gave an IC50 [1] of 1160 nM, an IC50 [2] of 188 nM and an IC50 [3] of 19.5 nM.

`CN1C(=O)[C@@H](NC(=O)c2nnc(Cc3ccccc3)o2)COc2ccc(C#CC(C)(C)O)cc21` [Compound I-71, (S)-5-benzyl-N-(7-(3-hydroxy-3-methylbut-1-yn-1-yl)-5-methyl-4-oxo-2,3,4,5-tetrahydrobenzo[b][1,4]oxazepin-3-yl)-1,3,4-oxadiazole-2-carboxamide] gave an IC50 [1] of 21.7 nM, an IC50 [2] of 0.9 nM and an IC50 [3] of 0.2 nM.

`CN1C(=O)[C@@H](NC(=O)c2n[nH]c(Cc3ccccc3)n2)COc2cc(C#CC3(O)COC3)ccc21` [Compound I-73, (S)-5-benzyl-N-(8-((3-hydroxyoxetan-3-yl)ethynyl)-5-methyl-4-oxo-2,3,4,5-tetrahydrobenzo[b][1,4]oxazepin-3-yl)-1H-1,2,4-triazole-3-carboxamide] was tested, and the IC50 [1] was 42.9 nM, the IC50 [2] was 11.7 nM and the IC50 [3] was 2.7 nM.

Molecule `CN1C(=O)[C@@H](NC(=O)c2n[nH]c(Cc3ccccc3)n2)COc2ccc(C#C[C@@]3(O)CO[C@@H]4[C@@H](OC(=O)c5ccccc5)CO[C@@H]43)cc21` [Compound I-74, (3S,3aR,6R,6aS)-6-(((S)-3-(5-benzyl-1H-1,2,4-triazole-3-carboxamido)-5-methyl-4-oxo-2,3,4,5-tetrahydrobenzo[b][1,4]oxazepin-7-yl)ethynyl)-6-hydroxyhexahydrofuro[3,2-b]furan-3-yl benzoate] has an IC50 [1] of 51.8 nM, an IC50 [2] of 1.4 nM and an IC50 [3] of 0.2 nM.

`CN1C(=O)[C@@H](NC(=O)c2n[nH]c(Cc3ccccc3)n2)COc2ccc(C#C[C@@]3(O)CO[C@@H]4[C@@H](O)CO[C@@H]43)cc21` [Compound I-75, 5-benzyl-N—((S)-7-(((3R,3aS,6S,6aR)-3,6-dihydroxyhexahydrofuro[3,2-b]furan-3-yl)ethynyl)-5-methyl-4-oxo-2,3,4,5-tetrahydrobenzo[b][1,4]oxazepin-3-yl)-1H-1,2,4-triazole-3-carboxamide] gave an IC50 [1] of 54.6 nM, an IC50 [2] of 8.3 nM and an IC50 [3] of 1.4 nM.

Work on `COC(=O)C(C)(C)C#Cc1ccc2c(c1)N(C)C(=O)[C@@H](NC(=O)c1n[nH]c(Cc3ccccc3)n1)CO2` [Compound I-76, methyl (S)-4-(3-(5-benzyl-1H-1,2,4-triazole-3-carboxamido)-5-methyl-4-oxo-2,3,4,5-tetrahydrobenzo[b][1,4]oxazepin-7-yl)-2,2-dimethylbut-3-ynoate] yielded an IC50 [1] of 44.9 nM, an IC50 [2] of 18.1 nM and an IC50 [3] of 2.4 nM.

Molecule `CN1C(=O)[C@@H](NC(=O)c2ccn(Cc3ccccc3)n2)COc2ccc(C#CC(C)(C)O)cc21` [Compound I-77, (S)-1-benzyl-N-(7-(3-hydroxy-3-methylbut-1-yn-1-yl)-5-methyl-4-oxo-2,3,4,5-tetrahydrobenzo[b][1,4]oxazepin-3-yl)-1H-pyrazole-3-carboxamide] has an IC50 [1] of 32.7 nM, an IC50 [2] of 2.8 nM and an IC50 [3] of 0.3 nM.

For `CN1C(=O)[C@@H](NC(=O)c2n[nH]c(Cc3cccc(F)c3)n2)COc2ccc(C#CC(C)(C)O)cc21` [Compound I-78, (S)-5-(3-fluorobenzyl)-N-(7-(3-hydroxy-3-methylbut-1-yn-1-yl)-5-methyl-4-oxo-2,3,4,5-tetrahydrobenzo[b][1,4]oxazepin-3-yl)-1H-1,2,4-triazole-3-carboxamide], the IC50 [1] was 33.4 nM, the IC50 [2] was 2.5 nM and the IC50 [3] was 0.9 nM.

In the case of `CN1C(=O)[C@@H](NC(=O)c2n[nH]c(Cc3ccc(F)cc3)n2)COc2ccc(C#CC(C)(C)O)cc21` [Compound I-79, (S)-5-(4-fluorobenzyl)-N-(7-(3-hydroxy-3-methylbut-1-yn-1-yl)-5-methyl-4-oxo-2,3,4,5-tetrahydrobenzo[b][1,4]oxazepin-3-yl)-1H-1,2,4-triazole-3-carboxamide], the IC50 [1] is reported as 34.7 nM, the IC50 [2] is reported as 5.1 nM and the IC50 [3] is reported as 0.8 nM.

With `CN1C(=O)[C@@H](NC(=O)c2n[nH]c(Cc3ccccc3F)n2)COc2ccc(C#CC(C)(C)O)cc21` [Compound I-80, (S)-5-(2-fluorobenzyl)-N-(7-(3-hydroxy-3-methylbut-1-yn-1-yl)-5-methyl-4-oxo-2,3,4,5-tetrahydrobenzo[b][1,4]oxazepin-3-yl)-1H-1,2,4-triazole-3-carboxamide] the IC50 [1] was 20.6 nM, the IC50 [2] was 2.7 nM and the IC50 [3] was 0.7 nM.

`C#Cc1ccc2c(c1)N(C)C(=O)[C@@H](NC(=O)c1n[nH]c(Cc3ccccc3)n1)CO2` [Compound I-81, (S)-5-benzyl-N-(7-ethynyl-5-methyl-4-oxo-2,3,4,5-tetrahydrobenzo[b][1,4]oxazepin-3-yl)-1H-1,2,4-triazole-3-carboxamide] gave an IC50 [1] of 19 nM, an IC50 [2] of 4.2 nM and an IC50 [3] of 1.2 nM.

For `Cc1ccccc1Cn1cnc(C(=O)N[C@H]2COc3ccc(C#CC(C)(C)O)cc3N(C)C2=O)n1` [Compound I-82, (S)—N-(7-(3-hydroxy-3-methylbut-1-yn-1-yl)-5-methyl-4-oxo-2,3,4,5-tetrahydrobenzo[b][1,4]oxazepin-3-yl)-1-(2-methylbenzyl)-1H-1,2,4-triazole-3-carboxamide], the IC50 [1] was 25.5 nM, the IC50 [2] was 1.9 nM and the IC50 [3] was 0.3 nM.

Molecule `CN1C(=O)[C@@H](NC(=O)c2ncn(Cc3ccc(-c4ccccc4)cc3)n2)COc2ccc(C#CC(C)(C)O)cc21` [Compound I-83, (S)-1-([1,1′-biphenyl]-4-ylmethyl)-N-(7-(3-hydroxy-3-methylbut-1-yn-1-yl)-5-methyl-4-oxo-2,3,4,5-tetrahydrobenzo[b][1,4]oxazepin-3-yl)-1H-1,2,4-triazole-3-carboxamide] has an IC50 [1] of 66.4 nM, an IC50 [2] of 1 nM and an IC50 [3] of 0.1 nM.

In the case of `Cc1cccc(C)c1Cn1cnc(C(=O)N[C@H]2COc3ccc(C#CC(C)(C)O)cc3N(C)C2=O)n1` [Compound I-84, (S)-1-(2,6-dimethylbenzyl)-N-(7-(3-hydroxy-3-methylbut-1-yn-1-yl)-5-methyl-4-oxo-2,3,4,5-tetrahydrobenzo[b][1,4]oxazepin-3-yl)-1H-1,2,4-triazole-3-carboxamide], the IC50 [1] is reported as 44.1 nM, the IC50 [2] is reported as 56.3 nM and the IC50 [3] is reported as 12.2 nM.

Molecule `CC(C)Cn1cnc(C(=O)N[C@H]2COc3ccc(C#CC(C)(C)O)cc3N(C)C2=O)n1` [Compound I-85, (S)—N-(7-(3-hydroxy-3-methylbut-1-yn-1-yl)-5-methyl-4-oxo-2,3,4,5-tetrahydrobenzo[b][1,4]oxazepin-3-yl)-1-isobutyl-1H-1,2,4-triazole-3-carboxamide] has an IC50 [1] of 42.3 nM, an IC50 [2] of 3.3 nM and an IC50 [3] of 0.6 nM.

For `CCN(C(=O)c1n[nH]c(Cc2ccccc2)n1)[C@H]1COc2ccc(C#CC(C)(C)O)cc2N(C)C1=O` [Compound I-86, (S)-5-benzyl-N-ethyl-N-(7-(3-hydroxy-3-methylbut-1-yn-1-yl)-5-methyl-4-oxo-2,3,4,5-tetrahydrobenzo[b][1,4]oxazepin-3-yl)-1H-1,2,4-triazole-3-carboxamide], the IC50 [1] was 616 nM, the IC50 [2] was 4.1 nM and the IC50 [3] was 0.6 nM.

Molecule `CN1C(=O)[C@@H](NC(=O)c2cc(Cc3ccccc3)on2)COc2ccc(C#CC(C)(C)O)cc21` [Compound I-87, (S)-5-benzyl-N-(7-(3-hydroxy-3-methylbut-1-yn-1-yl)-5-methyl-4-oxo-2,3,4,5-tetrahydrobenzo[b][1,4]oxazepin-3-yl)isoxazole-3-carboxamide] has an IC50 [1] of 18.7 nM, an IC50 [2] of 138 nM and an IC50 [3] of 29.2 nM.

In the case of `CN1C(=O)[C@@H](NC(=O)c2n[nH]c(Cc3ccccc3)n2)COc2ccc(C#Cc3ccc4c(c3)CNCC4)cc21` [Compound I-88, (S)-5-benzyl-N-(5-methyl-4-oxo-7-((1,2,3,4-tetrahydroisoquinolin-7-yl)ethynyl)-2,3,4,5-tetrahydrobenzo[b][1,4]oxazepin-3-yl)-1H-1,2,4-triazole-3-carboxamide], the IC50 [1] is reported as 73.8 nM, the IC50 [2] is reported as 0.7 nM and the IC50 [3] is reported as 0.0976 nM.

In the case of `CN1C(=O)[C@@H](NC(=O)c2n[nH]c(Cc3ccccc3F)n2)COc2ccc(C#CC(C)(C)C)cc21` [Compound I-89, (S)—N-(7-(3,3-dimethylbut-1-yn-1-yl)-5-methyl-4-oxo-2,3,4,5-tetrahydrobenzo[b][1,4]oxazepin-3-yl)-5-(2-fluorobenzyl)-1H-1,2,4-triazole-3-carboxamide], the IC50 [1] is reported as 52.7 nM, the IC50 [2] is reported as 4.5 nM and the IC50 [3] is reported as 0.7 nM.

`Cc1cccc(C)c1Cn1cnc(C(=O)N[C@H]2COc3ccc(C#CC(C)(C)C)cc3N(C)C2=O)n1` [Compound I-90, (S)-1-(2,6-dimethylbenzyl)-N-(7-(3,3-dimethylbut-1-yn-1-yl)-5-methyl-4-oxo-2,3,4,5-tetrahydrobenzo[b][1,4]oxazepin-3-yl)-1H-1,2,4-triazole-3-carboxamide] showed an IC50 [1] of 365 nM, an IC50 [2] of 9.1 nM and an IC50 [3] of 4.6 nM.
